We go through 1 molecule from PMC5218480 (PLoS ONE, 2017).

In this assay the test system is MV-4-11 cells. Description: Gene expression microarray analysis (Affymetrix PrimeView) and GSEA. The format is cell-based, human. Also noted: RFU PODN (11730768_x_at) / Fold change /veh PODN (11730768_x_at) / RFU LINC00158 (11744669_a_at) / Fold change /veh LINC00158 (11744669_a_at) / RFU DUSP10 (11751237_a_at) / Fold change /veh DUSP10 (11751237_a_at) / RFU ID3 (11757404_x_at) / Fold change /veh ID3 (11757404_x_at) / RFU PLEKHG5 (11737974_s_at) / Fold change /veh PLEKHG5 (11737974_s_at) / RFU LRRC4B (11730491_at) / Fold change /veh LRRC4B (11730491_at) / RFU GIMAP4 (11747438_a_at) / Fold change /veh GIMAP4 (11747438_a_at) / RFU KRT8 (11758183_x_at) / Fold change /veh KRT8 (11758183_x_at) / RFU CNN1 (11734310_a_at) / Fold change /veh CNN1 (11734310_a_at) / RFU VPS37D (11726825_at) / Fold change /veh VPS37D (11726825_at) / RFU C10orf10 (11716522_x_at) / Fold change /veh C10orf10 (11716522_x_at) / RFU KIR2DL2 /// KIR2DL4 /// KIR2DL5A /// KIR2DL5B /// KIR2DS1 /// KIR2DS2 /// KIR2DS3 /// KIR2DS4 /// KIR3DL3 /// KIR3DL3 /// KIR3DS1 (11738374_at) / Fold change /veh KIR2DL2 /// KIR2DL4 /// KIR2DL5A /// KIR2DL5B /// KIR2DS1 /// KIR2DS2 /// KIR2DS3 /// KIR2DS4 /// KIR3DL3 /// KIR3DL3 /// KIR3DS1 (11738374_at) / RFU C1QL1 (11718748_at) / Fold change /veh C1QL1 (11718748_at) / RFU TMPRSS4 (11747572_a_at) / Fold change /veh TMPRSS4 (11747572_a_at) / RFU HAMP (11756126_x_at) / Fold change /veh HAMP (11756126_x_at) / RFU RNFT2 (11725882_a_at) / Fold change /veh RNFT2 (11725882_a_at) / RFU NR4A2 (11747474_a_at) / Fold change /veh NR4A2 (11747474_a_at) / RFU ABCC12 (11746883_a_at) / Fold change /veh ABCC12 (11746883_a_at) / RFU TMEM136 (11760407_x_at) / Fold change /veh TMEM136 (11760407_x_at) / RFU CLDN22 /// WWC2 (11732394_at) / Fold change /veh CLDN22 /// WWC2 (11732394_at) / RFU HLA-DPB1 (11760878_x_at) / Fold change /veh HLA-DPB1 (11760878_x_at) / RFU SPINT1 (11716480_a_at) / Fold change /veh SPINT1 (11716480_a_at) / RFU GAP43 (11754022_s_at) / Fold change /veh GAP43 (11754022_s_at) / RFU A4GNT (11735810_at) / Fold change /veh A4GNT (11735810_at) / RFU PRB3 (11715151_x_at) / Fold change /veh PRB3 (11715151_x_at) / RFU TUBB4B (11761932_at) / Fold change /veh TUBB4B (11761932_at) / RFU CAPN14 (11732068_a_at) / Fold change /veh CAPN14 (11732068_a_at) / RFU TMCC2 (11721928_a_at) / Fold change /veh TMCC2 (11721928_a_at) / RFU IRGQ (11745062_a_at) / Fold change /veh IRGQ (11745062_a_at) / RFU FAM174B (11720279_a_at) / Fold change /veh FAM174B (11720279_a_at) / RFU TMPRSS4 (11748680_a_at) / Fold change /veh TMPRSS4 (11748680_a_at) / RFU FAM212B (11763350_a_at) / Fold change /veh FAM212B (11763350_a_at) / RFU PLEKHG5 (11743358_a_at) / Fold change /veh PLEKHG5 (11743358_a_at) / RFU ZSCAN30 (11745921_a_at) / Fold change /veh ZSCAN30 (11745921_a_at) / RFU CMKLR1 (11741424_a_at) / Fold change /veh CMKLR1 (11741424_a_at) / RFU LOC101060620 /// MAPK8IP1 (11723275_at) / Fold change /veh LOC101060620 /// MAPK8IP1 (11723275_at) / RFU SPTSSB (11747773_x_at) / Fold change /veh SPTSSB (11747773_x_at) / RFU PRSS12 (11739890_at) / Fold change /veh PRSS12 (11739890_at) / RFU BIN1 (11741810_x_at) / Fold change /veh BIN1 (11741810_x_at) / RFU WNT11 (11732464_a_at) / Fold change /veh WNT11 (11732464_a_at) / RFU C10orf10 (11716521_a_at) / Fold change /veh C10orf10 (11716521_a_at) / RFU C5orf56 (11738089_at) / Fold change /veh C5orf56 (11738089_at) / RFU CYB561 (11721691_x_at) / Fold change /veh CYB561 (11721691_x_at) / RFU ANKRD19P (11752326_a_at) / Fold change /veh ANKRD19P (11752326_a_at) / RFU OR2T12 /// OR2T33 /// OR2T8 (11738714_s_at) / Fold change /veh OR2T12 /// OR2T33 /// OR2T8 (11738714_s_at) / RFU VCAN (11748164_a_at) / Fold change /veh VCAN (11748164_a_at) / RFU JSRP1 (11732532_at) / Fold change /veh JSRP1 (11732532_at) / RFU KRTAP10-11 (11738290_x_at) / Fold change /veh KRTAP10-11 (11738290_x_at) / RFU MYO3A (11730013_a_at) / Fold change /veh MYO3A (11730013_a_at) / RFU EBF3 (11725865_a_at) / Fold change /veh EBF3 (11725865_a_at) / RFU CAMK2N1 (11719241_x_at) / Fold change /veh CAMK2N1 (11719241_x_at) / RFU C5orf56 (11738088_a_at) / Fold change /veh C5orf56 (11738088_a_at) / RFU OLFML3 (11715873_a_at) / Fold change /veh OLFML3 (11715873_a_at) / RFU LOC100653217 /// NTM (11731650_a_at) / Fold change /veh LOC100653217 /// NTM (11731650_a_at) / RFU MAPK11 (11762145_a_at) / Fold change /veh MAPK11 (11762145_a_at) / RFU FIZ1 (11724087_x_at) / Fold change /veh FIZ1 (11724087_x_at) / RFU OASL (11726364_x_at) / Fold change /veh OASL (11726364_x_at) / RFU SOX15 (11748057_x_at) / Fold change /veh SOX15 (11748057_x_at) / RFU CD79A (11719716_a_at) / Fold change /veh CD79A (11719716_a_at) / RFU HIST1H1D (11736915_at) / Fold change /veh HIST1H1D (11736915_at) / RFU CASKIN2 (11723855_a_at) / Fold change /veh CASKIN2 (11723855_a_at) / RFU LOC730098 (11760151_x_at) / Fold change /veh LOC730098 (11760151_x_at) / RFU OR4N2 (11742367_at) / Fold change /veh OR4N2 (11742367_at) / RFU PRRT2 (11749266_a_at) / Fold change /veh PRRT2 (11749266_a_at) / RFU SNX32 (11753110_a_at) / Fold change /veh SNX32 (11753110_a_at) / RFU CDHR5 (11726645_a_at) / Fold change /veh CDHR5 (11726645_a_at) / RFU RCAN1 (11760418_a_at) / Fold change /veh RCAN1 (11760418_a_at) / RFU FAM167A (11723789_a_at) / Fold change /veh FAM167A (11723789_a_at) / RFU FAM26E (11764081_at) / Fold change /veh FAM26E (11764081_at) / RFU ISYNA1 (11749810_s_at) / Fold change /veh ISYNA1 (11749810_s_at) / RFU ACY1 (11761880_at) / Fold change /veh ACY1 (11761880_at) / RFU 11764098_at / Fold change /veh 11764098_at / RFU SAMD14 (11745864_x_at) / Fold change /veh SAMD14 (11745864_x_at) / RFU NPB (11741838_a_at) / Fold change /veh NPB (11741838_a_at) / RFU TMPRSS6 (11731388_a_at) / Fold change /veh TMPRSS6 (11731388_a_at) / RFU KRTAP10-2 (11738614_at) / Fold change /veh KRTAP10-2 (11738614_at) / RFU ARHGAP8 /// PRR5-ARHGAP8 (11727945_x_at) / Fold change /veh ARHGAP8 /// PRR5-ARHGAP8 (11727945_x_at) / RFU KRTAP5-7 /// NADSYN1 (11734609_at) / Fold change /veh KRTAP5-7 /// NADSYN1 (11734609_at) / RFU RASL12 (11751679_a_at) / Fold change /veh RASL12 (11751679_a_at) / RFU CDKN2B (11736163_a_at) / Fold change /veh CDKN2B (11736163_a_at) / RFU PRF1 (11729649_at) / Fold change /veh PRF1 (11729649_at) / RFU, ZNF638 /// ZNF638-IT1 / Fold change vs veh, ZNF638 /// ZNF638-IT1 / RFU, PANK3 / Fold change vs veh, PANK3 / RFU, SH3YL1 / Fold change vs veh, SH3YL1 / RFU, ZEB2 / Fold change vs veh, ZEB2 / RFU, NRIP1 / Fold change vs veh, NRIP1 / RFU, PTTG1IP / Fold change vs veh, PTTG1IP / RFU, CAPN2 / Fold change vs veh, CAPN2 / RFU, MED14 / Fold change vs veh, MED14 / RFU, SNORA58 / Fold change vs veh, SNORA58 / RFU, C1orf63 / Fold change vs veh, C1orf63 / RFU, LRRFIP1 / Fold change vs veh, LRRFIP1 / RFU, NDUFAF7 / Fold change vs veh, NDUFAF7 / RFU, SLC12A2 / Fold change vs veh, SLC12A2 / RFU, IBTK / Fold change vs veh, IBTK / RFU, ESF1 / Fold change vs veh, ESF1 / Fold change vs veh, TMEM50B / RFU, TAOK1 / Fold change vs veh, TAOK1 / RFU, ACBD3 / Fold change vs veh, ACBD3 / RFU, TMA16 / Fold change vs veh, TMA16 / RFU, RWDD3 / Fold change vs veh, RWDD3 / RFU, BCAT1 / Fold change vs veh, BCAT1 / RFU, EDEM3 / Fold change vs veh, EDEM3 / RFU, TMEM33 / Fold change vs veh, TMEM33 / RFU, WDR75 / Fold change vs veh, WDR75 / RFU, AHCTF1 / Fold change vs veh, AHCTF1 / RFU, TFRC / Fold change vs veh, TFRC / RFU, ZDHHC17 / Fold change vs veh, ZDHHC17 / RFU, NOM1 / Fold change vs veh, NOM1 / RFU, ARL8B / Fold change vs veh, ARL8B / RFU, ZBTB11 / Fold change vs veh, ZBTB11 / RFU, TAMM41 / Fold change vs veh, TAMM41 / RFU, KIAA1704 /// LOC100996395 / Fold change vs veh, KIAA1704 /// LOC100996395 / RFU, ING1 / Fold change vs veh, ING1 / RFU, TRMT61B / Fold change vs veh, TRMT61B / RFU, FUBP3 / Fold change vs veh, FUBP3 / RFU, TP53 / Fold change vs veh, TP53 / RFU, TNKS2 / Fold change vs veh, TNKS2 / RFU, ZFP14 / Fold change vs veh, ZFP14 / RFU, ACTR2 / Fold change vs veh, ACTR2 / RFU, PPP3R1 / Fold change vs veh, PPP3R1 / RFU, PIK3R1 / Fold change vs veh, PIK3R1 / RFU, HNRNPA1 / Fold change vs veh, HNRNPA1 / RFU, RNF170 / Fold change vs veh, RNF170 / RFU, ZNF28 / Fold change vs veh, ZNF28 / RFU, RNGTT / Fold change vs veh, RNGTT / RFU, OGT / Fold change vs veh, OGT / RFU, BRD1 / Fold change vs veh, BRD1 / RFU, MARS / Fold change vs veh, MARS / RFU, ZNF655 / Fold change vs veh, ZNF655 / RFU, FAHD1 / Fold change vs veh, FAHD1 / RFU, BDP1 / Fold change vs veh, BDP1 / RFU, LRRCC1 / Fold change vs veh, LRRCC1 / RFU, ARID1A / Fold change vs veh, ARID1A / RFU, ZNF146 / Fold change vs veh, ZNF146 / RFU, ZNF330 / Fold change vs veh, ZNF330 / RFU, GPN3 / Fold change vs veh, GPN3 / RFU, C9orf123 / Fold change vs veh, C9orf123 / RFU, N4BP2L2 / Fold change vs veh, N4BP2L2 / RFU, ARFIP1 / Fold change vs veh, ARFIP1 / RFU, FAM179B / Fold change vs veh, FAM179B / RFU, BCL10 / Fold change vs veh, BCL10 / RFU, UHRF1BP1L / Fold change vs veh, UHRF1BP1L / RFU, BET1 / Fold change vs veh, BET1 / RFU, CNOT2 / Fold change vs veh, CNOT2 / RFU, ZNF268 / Fold change vs veh, ZNF268 / Fold change vs veh, ZNF507 / RFU, DGCR2 / Fold change vs veh, DGCR2 / RFU, WDSUB1 / Fold change vs veh, WDSUB1 / Fold change vs veh, HSP90B1 /// MIR3652 / RFU, ADSS / Fold change vs veh, ADSS / RFU, GK / Fold change vs veh, GK / RFU, ZNF148 / Fold change vs veh, ZNF148 / RFU, TAF9 / Fold change vs veh, TAF9 / RFU, SLC1A5 / Fold change vs veh, SLC1A5 / RFU, SLMO2 / Fold change vs veh, SLMO2 / RFU, ABCC4 / Fold change vs veh, ABCC4 / RFU, LOC101060439 /// RAP1B / Fold change vs veh, LOC101060439 /// RAP1B / RFU, RFX7 / Fold change vs veh, RFX7 / RFU, GTPBP10 / Fold change vs veh, GTPBP10 / RFU, CNEP1R1 / Fold change vs veh, CNEP1R1 / RFU, BIVM-ERCC5 /// ERCC5 / Fold change vs veh, BIVM-ERCC5 /// ERCC5 / RFU, ILF3 / Fold change vs veh, ILF3 / RFU 11762660_at / Fold change /veh 11762660_at / RFU VCAN (11757783_s_at) / Fold change /veh VCAN (11757783_s_at) / RFU DDX43 (11728927_at) / Fold change /veh DDX43 (11728927_at) / RFU KRT8 (11758188_x_at) / Fold change /veh KRT8 (11758188_x_at) / RFU NKD1 (11759106_at) / Fold change /veh NKD1 (11759106_at) / RFU SRD5A1 (11742802_a_at) / Fold change /veh SRD5A1 (11742802_a_at) / RFU TPSAB1 /// TPSB2 (11721975_s_at) / Fold change /veh TPSAB1 /// TPSB2 (11721975_s_at) / RFU GSTM3 (11746129_a_at) / Fold change /veh GSTM3 (11746129_a_at) / RFU IL23R (11737362_x_at) / Fold change /veh IL23R (11737362_x_at) / RFU TMEM51 (11727254_a_at) / Fold change /veh TMEM51 (11727254_a_at) / RFU PIWIL2 (11732686_x_at) / Fold change /veh PIWIL2 (11732686_x_at) / RFU ORM1 (11744905_x_at) / Fold change /veh ORM1 (11744905_x_at) / RFU CCDC152 (11743942_at) / Fold change /veh CCDC152 (11743942_at) / RFU ECM1 (11717891_a_at) / Fold change /veh ECM1 (11717891_a_at) / RFU IL23R (11748794_a_at) / Fold change /veh IL23R (11748794_a_at) / RFU TNFAIP8L3 (11732012_x_at) / Fold change /veh TNFAIP8L3 (11732012_x_at) / RFU MBOAT4 (11741988_at) / Fold change /veh MBOAT4 (11741988_at) / RFU 11764193_at / Fold change /veh 11764193_at / RFU TMEM53 (11763286_at) / Fold change /veh TMEM53 (11763286_at) / RFU MAGEB2 (11727129_at) / Fold change /veh MAGEB2 (11727129_at) / RFU TMEM200A (11744735_a_at) / Fold change /veh TMEM200A (11744735_a_at) / RFU CCDC152 (11751479_a_at) / Fold change /veh CCDC152 (11751479_a_at) / RFU FAM211A (11726209_a_at) / Fold change /veh FAM211A (11726209_a_at) / RFU RGS16 (11746705_a_at) / Fold change /veh RGS16 (11746705_a_at) / RFU VCAN (11755009_s_at) / Fold change /veh VCAN (11755009_s_at) / RFU RHOB (11743442_s_at) / Fold change /veh RHOB (11743442_s_at) / RFU RGS16 (11720943_a_at) / Fold change /veh RGS16 (11720943_a_at) / RFU RGS16 (11720944_at) / Fold change /veh RGS16 (11720944_at) / RFU, VPS4B / Fold change vs veh, VPS4B / RFU, CREB1 / Fold change vs veh, CREB1 / RFU, DNAJC13 / Fold change vs veh, DNAJC13 / RFU, GNAQ / Fold change vs veh, GNAQ / RFU, CDK5R1 / Fold change vs veh, CDK5R1 / RFU, ZRANB3 / Fold change vs veh, ZRANB3 / RFU, CUL4A / Fold change vs veh, CUL4A / RFU, CCNY / Fold change vs veh, CCNY / RFU, UFL1 / Fold change vs veh, UFL1 / RFU, COG3 / Fold change vs veh, COG3 / RFU, DIAPH2 / Fold change vs veh, DIAPH2 / RFU, SKA2 / Fold change vs veh, SKA2 / RFU, AFF3 / Fold change vs veh, AFF3 / RFU, LMF1 / Fold change vs veh, LMF1 / RFU, IPO11 / Fold change vs veh, IPO11 / RFU, DFFB / Fold change vs veh, DFFB / RFU, FOXP1 / Fold change vs veh, FOXP1 / RFU, CARD8 / Fold change vs veh, CARD8 / RFU, STRN3 / Fold change vs veh, STRN3 / RFU, ADK / Fold change vs veh, ADK / RFU, RASSF2 / Fold change vs veh, RASSF2 / RFU, WIPF1 / Fold change vs veh, WIPF1 / RFU, LARP1B / Fold change vs veh, LARP1B / RFU, RASA1 / Fold change vs veh, RASA1 / RFU, RB1 / Fold change vs veh, RB1 / RFU, PPFIA1 / Fold change vs veh, PPFIA1 / RFU, MAT2A / Fold change vs veh, MAT2A / RFU, CCT5 / Fold change vs veh, CCT5 / RFU, WDR92 / Fold change vs veh, WDR92 / RFU, CUX1 / Fold change vs veh, CUX1 / RFU, TTC7A / Fold change vs veh, TTC7A / RFU, TMEM135 / Fold change vs veh, TMEM135 / RFU, DEPTOR / Fold change vs veh, DEPTOR / RFU, CPM / Fold change vs veh, CPM / RFU, DNAJB6 / Fold change vs veh, DNAJB6 / RFU, CACNA2D3 / Fold change vs veh, CACNA2D3 / RFU, DTX4 / Fold change vs veh, DTX4 / RFU, TFCP2 / Fold change vs veh, TFCP2 / RFU, GMCL1 /// GMCL1P1 / Fold change vs veh, GMCL1 /// GMCL1P1 / RFU, AEBP2 / Fold change vs veh, AEBP2 / RFU, SNHG1 /// SNORD22 /// SNORD25 /// SNORD26 /// SNORD27 /// SNORD28 /// SNORD29 /// SNORD31 / Fold change vs veh, SNHG1 /// SNORD22 /// SNORD25 /// SNORD26 /// SNORD27 /// SNORD28 /// SNORD29 /// SNORD31 / Fold change (Aza/veh), C12orf56 (ProbeSet 11735607_a_at) / Fold change (ACY-1035/veh), C12orf56 (ProbeSet 11735607_a_at) / Fold change (Aza/veh), FGFR1OP (ProbeSet 11751329_s_at) / Fold change (ACY-1035/veh), FGFR1OP (ProbeSet 11751329_s_at) / Fold change (Aza/veh), VPS36 (ProbeSet 11739960_a_at) / Fold change (ACY-1035/veh), VPS36 (ProbeSet 11739960_a_at) / RFU SYPL1 (11715823_x_at) / Fold change /veh SYPL1 (11715823_x_at) / RFU IGFBP7 (11715501_s_at) / Fold change /veh IGFBP7 (11715501_s_at) / RFU REEP3 (11722064_at) / Fold change /veh REEP3 (11722064_at) / RFU IGLL1 (11728026_x_at) / Fold change /veh IGLL1 (11728026_x_at): dose or concentration left out as unconfirmed. To be noted: MV-4-11 cells, 48 hours.

As for `Nc1ccc(-c2cccs2)cc1NC(=O)c1ccc2c(c1)cc(C1CC1)n2CCN1CCOCC1` [ACY-1035], the “RFU HAMP (11756126_x_at)” value stood at 352.00 RFU.
